Experimental data: patent US4877796A (priority 1986, dated 1989)
Like-named read-outs stand apart in the source and are kept apart here.

Tested on: disturbances of the cardiac rhythm (aconitine) in the rat
Format: in vivo
Conditions: for Precentage of the protraction of time: aconitine perfusion five minutes after administration, compared with controls

## CN1CCC[C@H]2CCC[C@@H](N(C)C(=O)Cc3ccc(Cl)c(Cl)c3)[C@@H]21 [Example 2, [4aRS(4aα,8α,8aα)](+) N-(decahydro-1-methyl-8-quinolinyl)-3,4-dichloro-N-methyl-benzene-acetamide]
2.5 mg/kg intravenously
  Precentage of the protraction of time: 16%
5 mg/kg intravenously
  Precentage of the protraction of time: 28%
10 mg/kg intravenously
  Precentage of the protraction of time: 43%
intravenously, aconitine model
  antiarrythmic properties (in words): good antiarrythmic properties
